Where “and” joins values, the source holds several entries; their conditions need not be identical. Equal values may be shown once.
Assays:
[1] = biological target: T1, Human mitochondrial LonP1 (LonP1^WT) ATPase (Homo sapiens, UniProt P36776); test: Continuous NADH-coupled ATPase assay, wild-type LonP1; format: biochemical; conditions: for Modality (mechanism of LonP1 ATPase inhibition) / Ki / αKi / α: continuous ATPase assay; for Modality (mechanism of LonP1 ATPase inhibition): ATP titrated; for Ki: LonP1 400 nM, 30 min preincubation; for αKi: dissociation constant for ES complex; for α: relates αKi to Ki
T1 construct: hexa-histidine (N); made in house; host or cells: Rosetta 2 E. coli
T1 sequence (P36776 68-959): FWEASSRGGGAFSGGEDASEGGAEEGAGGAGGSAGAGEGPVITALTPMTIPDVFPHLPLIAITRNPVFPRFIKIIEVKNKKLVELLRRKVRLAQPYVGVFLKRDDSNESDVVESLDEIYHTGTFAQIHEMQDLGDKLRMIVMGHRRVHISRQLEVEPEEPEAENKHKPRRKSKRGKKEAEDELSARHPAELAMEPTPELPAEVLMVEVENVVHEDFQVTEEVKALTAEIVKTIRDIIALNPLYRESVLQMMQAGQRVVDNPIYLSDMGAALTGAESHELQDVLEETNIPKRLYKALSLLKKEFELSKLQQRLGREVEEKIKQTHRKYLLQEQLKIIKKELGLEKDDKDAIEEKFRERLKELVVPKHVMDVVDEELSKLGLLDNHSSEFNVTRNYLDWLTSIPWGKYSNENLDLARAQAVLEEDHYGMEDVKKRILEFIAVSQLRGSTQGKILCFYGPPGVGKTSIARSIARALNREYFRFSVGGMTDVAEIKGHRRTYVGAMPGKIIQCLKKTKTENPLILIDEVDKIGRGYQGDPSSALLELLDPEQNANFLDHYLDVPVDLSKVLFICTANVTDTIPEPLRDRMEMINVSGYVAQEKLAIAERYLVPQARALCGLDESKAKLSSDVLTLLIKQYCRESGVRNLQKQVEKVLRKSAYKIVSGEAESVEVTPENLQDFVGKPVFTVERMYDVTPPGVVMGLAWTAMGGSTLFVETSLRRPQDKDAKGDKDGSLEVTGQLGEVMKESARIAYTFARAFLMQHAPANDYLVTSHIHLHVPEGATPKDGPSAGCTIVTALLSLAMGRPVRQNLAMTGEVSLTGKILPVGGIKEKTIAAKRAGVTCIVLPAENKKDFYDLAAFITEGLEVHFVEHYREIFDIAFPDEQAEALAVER
Protocol: ATPase reactions (200 μl total) were performed in 96-well plates at room temperature. LonP1 (400 nM monomer) was preincubated with DMSO (1–2%) vehicle control or CDDO derivatives in buffer (50 mM HEPES-KOH pH 7.5, 5 mM magnesium acetate, 75 mM potassium acetate) for 30 to 45 min at room temperature or 30 °C. The reactions were initiated by the addition of phosphoenolpyruvate (PEP, 3 mM), NADH (300 μM), pyruvate kinase and lactate dehydrogenase (PK-LDH) (12–20 U/ml), and ATP concentrations as indicated. The change in NADH absorbance at 340 nm was monitored in Spectramax plate reader for 5 min to obtain reaction velocities. Data were fit to the Michaelis–Menten curve using GraphPad Prism 5, and the error bars represent the standard deviation (SD) of four replicate reactions from at least three independent experiments.

[2] = biological target: T2, Human mitochondrial LonP1 (wild-type) ATPase (Homo sapiens, UniProt P36776); test: Endpoint ATPase assay (ADP-Glo), wild-type LonP1; format: biochemical; conditions: end-point ATPase assay, 1 mM ATP, 60 min preincubation 25 °C; Table 1
T2 construct: hexa-histidine (N); made in house; host or cells: Rosetta 2 E. coli
T2 sequence (P36776 68-959): T1 sequence (P36776 68-959)
Protocol: ADP-Glo (Promega) assays were performed according to the manufacturer's protocols. Purified wild-type or mutant LonP1 (400 nM monomer), the 26S proteasome (3 nM), or no enzyme controls were preincubated in 96-well plates (60 min, 25 °C) with ten different concentrations of CDDO and its derivatives, TP-82, enoxolone (5 μM) or DMSO vehicle control in buffer (40 mM Tris-HCl (pH 7.5), 20 mM MgCl2, 0.1 mg/ml BSA and 5% DMSO). The 26S and 20S proteasome were also assayed at 0, 0.75, 1.5, 3, 6, and 12 nM in the absence of CDDO derivatives. UltraPure ATP (1 mM final) was added, and reactions (50 μl final) were incubated for 60 min at 25 °C, then 5 μl was transferred in quadruplicate to a 384-well plate. Assay reagents were used to quench further ATPase activity and generate luminescence signals proportional to the concentration of ADP formed. Background (no enzyme control) luminescence values were subtracted, and resultant values were reported as a percentage of the no drug control (100%). Data were fit to four-parameter dose–response curves using GraphPad Prism. The error bars represent the standard deviation (SD) of four replicate reactions from at least three independent experiments.

| Modality (mechanism of LonP1 ATPase inhibition) [1] | Ki [1] | αKi [1] | α [1] | IC50 [2] | Ki relative to the Ki of other CDDO derivatives ([1]; fold higher) | SMILES |
| --- | --- | --- | --- | --- | --- | --- |
| noncompetitive | 2.6 ± 0.5 µM | 14 ± 2 µM and 14.0 ± 2.0 µM | 5.4 | 13 ± 6 µM |  | CC1(C)CC[C@]2(C(=O)O)CC[C@]3(C)[C@H](C(=O)C=C4[C@@]5(C)C=C(C#N)C(=O)C(C)(C)[C@@H]5CC[C@]43C)[C@@H]2C1 [CDDO, 2-cyano-3,12-dioxooleana-1,9(11)-dien-28-oic acid] |
| competitive | 9.5 ± 1.4 µM |  |  | 19.4 ± 3.3 µM | ~3.5 fold | CC1(C)CC[C@]2(C(=O)OC(=O)[C@]34CCC(C)(C)C[C@H]3[C@H]3C(=O)C=C5[C@@]6(C)C=C(C#N)C(=O)C(C)(C)[C@@H]6CC[C@@]5(C)[C@]3(C)CC4)CC[C@]3(C)[C@H](C(=O)C=C4[C@@]5(C)C=C(C#N)C(=O)C(C)(C)[C@@H]5CC[C@]43C)[C@@H]2C1 [CDDO-anhydride] |
| noncompetitive | 0.8 ± 0.1 µM | 3.3 ± 1.0 µM | 4.3 | 1.9 ± 0.3 µM |  | COC(=O)[C@]12CCC(C)(C)C[C@H]1[C@H]1C(=O)C=C3[C@@]4(C)C=C(C#N)C(=O)C(C)(C)[C@@H]4CC[C@@]3(C)[C@]1(C)CC2 [CDDO-Me] |
